Reference: patent EP3628664A1, “IRREVERSIBLE INHIBITORS OF KRAS G12C MUTANT” (Max-Planck-Gesellschaft zur Förderung der Wissenschaften …, priority 2018, dated 2020)

Legend:
KRas G12C [1] = target: T1, KRas G12C (Homo sapiens, UniProt P01116, G12C); test: Tethering assay: covalent adduct formation determined by MALDI; format: binding; conditions: 20 mM HEPES, pH 7.5, 150 mM NaCl, room temperature; for Covalent adduct formation 30 min: after 30 min; for Covalent adduct formation 24h: after 24h; for Covalent adduct formation 48h: after 48h
Protocol: Protein was incubated with the compounds in 20 mM HEPES, pH 7.5, 150 mM NaCl at room temperature for the specific times. For MALDI experiments, a saturated solution of sinapic acid (Aldrich) in H2O (0.1% TFA) / ACN (2:1) was used as matrix. 1 µL of the samples was mixed with 5 µL of matrix, and 1 µL of this mixture was placed on an MTP 384 ground steel target plate and dried in air. Mass spectra were obtained over the m/z range 17.000-21.000 using a Bruker UltrafleXtreme TOF/TOF mass spectrometer. […]

KRas G12C [2] = target: T1, KRas G12C; test: Competitive LC-MS experiment with KRas G12C in the presence of glutathione; format: binding
Protocol: In competitive experiments it was shown that the inventive compounds bind selectively to the KRas G12C mutant in the presence of glutathione (GSH).
Cell indices ±s.d. were measured in technical triplicates and biological duplicates. Staurosporin was used as control compound.

[3] = LC-MS stability of compound with glutathione in PBS buffer at 37 °C; format: physicochemical
[4] = Hydrolysis stability in HEPES buffer (LC-MS); format: physicochemical; conditions: HEPES buffer (pH 7.5), 37 °C, 24 hours
Protocol: Compound 4 was dissolved in HEPES (4-(2-hydroxyethyl)-1-piperazineethanesulfonic acid) buffer (pH 7.5) at 37 °C for 24 hours.

Row | SMILES | Covalent adduct formation 30 min (KRas G12C [1]) | Covalent adduct formation 24h (KRas G12C [1]) | Covalent adduct formation 48h (KRas G12C [1]) | glutathione-4 adduct formation (KRas G12C [2]; KRas G12C, compound 4 and glutathione, up to 5 hours) | covalent adduct formation with KRas G12C (KRas G12C [2]; in the presence of glutathione, after 1 hour) | incubation time after which compound remains unreacted ([3]; in the presence of glutathione) | formation of the glutathione-4 covalent adduct ([3]; mixture with glutathione) | stability ([3]; mixture with glutathione, up to 24 hours) | remaining at 18 h ([3]; pH 7.5, with glutathione, after 18 hours incubation time, read-out: compound remains unreacted) | stability against hydrolysis [4]
1 | CC(C)(C)c1cc(NCC(=O)N2CCN(C(=O)c3cnc(Cl)nc3)CC2)c(O)cc1Cl [Compound 3, 2-((5-(tert-butyl)-4-chloro-2-hydroxyphenyl)amino)-1-(4-(2-chloropyrimidine-5-carbonyl)piperazin-1-yl)ethan-1-one] | +++ (covalent labeling > 90%) | +++ (covalent labeling > 90%) | +++ (covalent labeling > 90%) |  |  |  |  |  |  | 
2 | CC(C)(C)c1ccc(O)c(NCC(=O)N2CCN(C(=O)c3cnc(Cl)nc3)CC2)c1 [Compound 1, 2-((5-(tert-butyl)-2-hydroxyphenyl)amino)-1-(4-(2-chloropyrimidine-5-carbonyl)piperazin-1-yl)ethan-1-one] | +++ (covalent labeling > 90%) | +++ (covalent labeling > 90%) | +++ (covalent labeling > 90%) |  |  |  |  |  |  | 
3 | CC(C)(C)c1cc(NCC(=O)N2CCN(C(=O)c3cnc(Cl)cn3)CC2)c(O)cc1Cl [Compound 8, 2-((5-(tert-butyl)-4-chloro-2-hydroxyphenyl)amino)-1-(4-(5-chloropyrazine-2-carbonyl)piperazin-1-yl)ethan-1-one] | + (5 < covalent labeling ≤ 50) | ++ (50 < covalent labeling ≤ 90) | +++ (covalent labeling > 90%) |  |  |  |  |  |  | 
4 | CCC(C)(C)c1cc(NCC(=O)N2CCN(C(=O)c3ccnc(Cl)n3)CC2)c(O)cc1Cl [Compound 6, 2-((4-chloro-2-hydroxy-5-(tert-pentyl)phenyl)amino)-1-(4-(2-chloropyrimidine-4-carbonyl)piperazin-1-yl)ethan-1-one] | + (5 < covalent labeling ≤ 50) | ++ (50 < covalent labeling ≤ 90) | +++ (covalent labeling > 90%) |  |  |  |  |  |  | 
5 | CC1(c2cc(NCC(=O)N3CCN(C(=O)c4cnc(Cl)nc4)CC3)c(O)cc2Cl)CC1 [Compound 5, 2-((4-chloro-2-hydroxy-5-(1-methylcyclopropyl)phenyl)amino)-1-(4-(2-chloropyrimidine-5-carbonyl)piperazin-1-yl)ethan-1-one] | +++ (covalent labeling > 90%) | +++ (covalent labeling > 90%) | +++ (covalent labeling > 90%) |  |  |  |  |  |  | 
6 | CCC(C)(C)c1cc(NCC(=O)N2CCN(C(=O)c3cnc(Cl)nc3)CC2)c(O)cc1Cl [Compound 4, 2-((4-chloro-2-hydroxy-5-(tert-pentyl)phenyl)amino)-1-(4-(2-chloropyrimidine-5-carbonyl)piperazin-1-yl)ethan-1-one] | +++ (covalent labeling > 90%) | +++ (covalent labeling > 90%) | +++ (covalent labeling > 90%) | No glutathione-4 adduct formation could be observed | Nearly complete | more than 18 hours | occurs slowly | good stability | ~50% | stable against hydrolysis
7 | Cc1cc(C)c(NCC(=O)N2CCN(C(=O)c3cnc(Cl)nc3)CC2)c(C)c1 [Compound 9, 1-(4-(2-chloropyrimidine-5-carbonyl)piperazin-1-yl)-2-(mesitylamino)ethan-1-one] | +++ (covalent labeling > 90%) | +++ (covalent labeling > 90%) | +++ (covalent labeling > 90%) |  |  |  |  |  |  | 
8 | CCC(C)(C)c1cc(NCC(=O)N2CCN(S(=O)(=O)c3cnc(Cl)nc3)CC2)c(O)cc1Cl [Compound 7, 2-((4-chloro-2-hydroxy-5-(tert-pentyl)phenyl)amino)-1-(4-((2-chloropyrimidin-5-yl)sulfonyl)piperazin-1-yl)ethan-1-one] | +++ (covalent labeling > 90%) | +++ (covalent labeling > 90%) | +++ (covalent labeling > 90%) |  |  |  |  |  |  | 
9 | CCC(C)(C)c1ccc(O)c(NCC(=O)N2CCN(C(=O)c3cnc(Cl)nc3)CC2)c1 [Compound 2, 1-(4-(2-chloropyrimidine-5-carbonyl)piperazin-1-yl)-2-((2-hydroxy-5-(tert-pentyl)phenyl)amino)ethan-1-one] | +++ (covalent labeling > 90%) | +++ (covalent labeling > 90%) | +++ (covalent labeling > 90%) |  |  |  |  |  |  | 
